# Source: ChEMBL document CHEMBL3091367, “Synthesis and evaluation of the apoptosis inducing and CT DNA interaction properties of a series of 4β-carbamoyl 4'-O-demethylepipodophyllotoxins” (Eur J Med Chem, 2013)
# Calls of active or inactive are those of the source. No cut-off for these calls is given here.
# Key:
# [1] = Cytotoxicity against human HCT8 cells after 48 hrs by MTT assay; format: functional, cell-based; conditions: HCT-8, 48 h
# [2] = system: A549; experiment: Cytotoxicity against human A549 cells after 48 hrs by MTT assay; format: functional, cell-based; conditions: A549, 48 h
# [3] = system: HeLa; experiment: Cytotoxicity against human HeLa cells after 48 hrs by MTT assay; format: functional, cell-based
# [4] = system: HL-60; experiment: Cytotoxicity against human HL60 cells after 48 hrs by cell counting kit-8 assay; format: functional, cell-based; conditions: HL-60, 48 h
# [5] = system: HeLa; experiment: Cell cycle arrest in human HeLa cells assessed as accumulation at S phase at 0.5 uM by propidium iodide staining-based FACS flow cytometric analysis (reference value: 16.3%); format: functional
# [6] = system: HeLa; experiment: Cell cycle arrest in human HeLa cells assessed as accumulation at G1 phase at 10 uM by propidium iodide staining-based FACS flow cytometric analysis (reference value: 54.7%); format: functional
# [7] = system: HeLa; experiment: Cell cycle arrest in human HeLa cells assessed as accumulation at G1 phase at 5 uM by propidium iodide staining-based FACS flow cytometric analysis (reference value: 54.7%); format: functional
# [8] = system: HeLa; experiment: Cell cycle arrest in human HeLa cells assessed as accumulation at G1 phase at 0.5 uM by propidium iodide staining-based FACS flow cytometric analysis (reference value: 54.7%); format: functional
# [9] = system: HeLa; experiment: Cell cycle arrest in human HeLa cells assessed as accumulation at sub-G1 phase at 10 uM by propidium iodide staining-based FACS flow cytometric analysis (reference value: 4.4%); format: functional
# [10] = system: HeLa; experiment: Cell cycle arrest in human HeLa cells assessed as accumulation at sub-G1 phase at 0.5 uM by propidium iodide staining-based FACS flow cytometric analysis (reference value: 4.4%); format: functional
# [11] = system: HeLa; experiment: Cell cycle arrest in human HeLa cells assessed as accumulation at sub-G1 phase at 5 uM by propidium iodide staining-based FACS flow cytometric analysis (reference value: 4.4%); format: functional
# [12] = system: HeLa; experiment: Cell cycle arrest in human HeLa cells assessed as accumulation at G2/M phase at 5 uM after 24 hrs by propidium iodide staining-based FACS flow cytometric analysis (reference value: 22.7%); format: functional
# [13] = system: HeLa; experiment: Cell cycle arrest in human HeLa cells assessed as accumulation at G2/M phase at 5 uM after 12 hrs by propidium iodide staining-based FACS flow cytometric analysis (reference value: 22.7%); format: functional
# [14] = system: HeLa; experiment: Cell cycle arrest in human HeLa cells assessed as accumulation at S phase at 5 uM after 24 hrs by propidium iodide staining-based FACS flow cytometric analysis (reference value: 9.0%); format: functional
# [15] = system: HeLa; experiment: Cell cycle arrest in human HeLa cells assessed as accumulation at S phase at 5 uM after 12 hrs by propidium iodide staining-based FACS flow cytometric analysis (reference value: 9.0%); format: functional
# [16] = system: HeLa; experiment: Cell cycle arrest in human HeLa cells assessed as accumulation at G1 phase at 5 uM after 24 hrs by propidium iodide staining-based FACS flow cytometric analysis (reference value: 57.2%); format: functional
# [17] = system: HeLa; experiment: Cell cycle arrest in human HeLa cells assessed as accumulation at G1 phase at 5 uM after 12 hrs by propidium iodide staining-based FACS flow cytometric analysis (reference value: 57.2%); format: functional
# [18] = system: HeLa; experiment: Cell cycle arrest in human HeLa cells assessed as accumulation at sub-G1 phase at 5 uM after 24 hrs by propidium iodide staining-based FACS flow cytometric analysis (reference value: 1.8%); format: functional
# [19] = system: HeLa; experiment: Cell cycle arrest in human HeLa cells assessed as accumulation at sub-G1 phase at 5 uM after 12 hrs by propidium iodide staining-based FACS flow cytometric analysis (reference value: 1.8%); format: functional
# [20] = system: HeLa; experiment: Induction of apoptosis in human HeLa cells assessed as upregulation of Bax protein expression at 5 uM after 1 to 24 hrs by Western blotting analysis; format: functional, cell-based
# [21] = system: HeLa; experiment: Cell cycle arrest in human HeLa cells assessed as accumulation at sub-G1 phase by propidium iodide staining-based FACS flow cytometric analysis; format: functional
# [22] = system: DNA; experiment: Binding affinity to calf thymus DNA assessed as increase in complex fluorescence using 1 to 6 uM of DNA at 1 uM after 5 mins by fluorescence assay; format: nucleic-acid assay; conditions: Bos taurus
# [23] = system: DNA; experiment: Binding affinity to calf thymus DNA assessed as change in DNA conformation from B-form to C-form at 5 to 40 ug/ml after 24 hrs by circular dichorism spectroscopy; format: nucleic-acid assay; conditions: Bos taurus
# [24] = system: HeLa; experiment: Induction of apoptosis in human HeLa cells assessed as upregulation of caspase-3 protein expression at 5 uM by Western blotting analysis; format: functional, cell-based; conditions: TDE = time-dependent effect
# [25] = system: HeLa; experiment: Induction of apoptosis in human HeLa cells assessed as upregulation of p53 protein expression at 5 uM by Western blotting analysis; format: functional, cell-based; conditions: TDE = time-dependent effect
# [26] = system: HeLa; experiment: Induction of apoptosis in human HeLa cells assessed as upregulation of Bax protein expression at 5 uM by Western blotting analysis; format: functional, cell-based; conditions: TDE = time-dependent effect
# [27] = system: HeLa; experiment: Induction of apoptosis in human HeLa cells assessed as upregulation of caspase-3 protein expression at 5 uM after 1 to 24 hrs by Western blotting analysis; format: functional, cell-based
# [28] = system: HeLa; experiment: Induction of apoptosis in human HeLa cells assessed as upregulation of p53 protein expression at 5 uM after 1 to 24 hrs by Western blotting analysis; format: functional, cell-based
# [29] = system: HeLa; experiment: Cell cycle arrest in human HeLa cells assessed as accumulation at G2/M phase at 10 uM by propidium iodide staining-based FACS flow cytometric analysis (reference value: 15.0%); format: functional
# [30] = system: HeLa; experiment: Cell cycle arrest in human HeLa cells assessed as accumulation at G2/M phase at 5 uM by propidium iodide staining-based FACS flow cytometric analysis (reference value: 15.0%); format: functional
# [31] = system: HeLa; experiment: Cell cycle arrest in human HeLa cells assessed as accumulation at G2/M phase at 0.5 uM by propidium iodide staining-based FACS flow cytometric analysis (reference value: 15.0%); format: functional
# [32] = system: HeLa; experiment: Cell cycle arrest in human HeLa cells assessed as accumulation at S phase at 10 uM by propidium iodide staining-based FACS flow cytometric analysis (reference value: 16.3%); format: functional
# [33] = system: HeLa; experiment: Cell cycle arrest in human HeLa cells assessed as accumulation at S phase at 5 uM by propidium iodide staining-based FACS flow cytometric analysis (reference value: 16.3%); format: functional
structure (smiles),measurement,setting,value
COc1cc([C@@H]2c3cc4c(cc3[C@@H](OC(=O)NC3CCCCC3)[C@H]3COC(=O)[C@H]23)OCO4)cc(OC)c1O,IC50,[1],1240 nM
same,IC50,[2],26100 nM
same,IC50,[3],5400 nM
same,IC50,[4],270 nM
COc1cc([C@@H]2c3cc4c(cc3[C@@H](OC(=O)N[C@H](CCSC)C(=O)N3CCN(c5ccc([N+](=O)[O-])cc5)CC3)[C@H]3COC(=O)[C@H]23)OCO4)cc(OC)c1O,IC50,[1],850 nM
same,IC50,[2],> 100000 nM
same,IC50,[3],> 100000 nM
same,IC50,[4],20 nM
COc1cc([C@@H]2c3cc4c(cc3[C@@H](OC(=O)N[C@@H](C)C(=O)N3CCN(c5ccc([N+](=O)[O-])cc5)CC3)[C@H]3COC(=O)[C@H]23)OCO4)cc(OC)c1O,IC50,[1],710 nM
same,IC50,[2],19000 nM
same,IC50,[3],> 100000 nM
same,IC50,[4],130 nM
COc1cc([C@@H]2c3cc4c(cc3[C@@H](OC(=O)N3CCN(C)CC3)[C@H]3COC(=O)[C@H]23)OCO4)cc(OC)c1O,IC50,[1],30 nM
same,IC50,[2],4180 nM
same,IC50,[3],20000 nM
same,IC50,[4],190 nM
COc1cc([C@@H]2c3cc4c(cc3[C@@H](OC(=O)N3CCN(c5ccc([N+](=O)[O-])cc5)CC3)[C@H]3COC(=O)[C@H]23)OCO4)cc(OC)c1OC(=O)N1CCN(c2ccc([N+](=O)[O-])cc2)CC1,IC50,[1],10 nM
same,IC50,[2],56900 nM
same,IC50,[4],350 nM
COc1cc([C@@H]2c3cc4c(cc3[C@@H](OC(=O)N[C@H](C(=O)N3CCN(c5ccc([N+](=O)[O-])cc5)CC3)C(C)C)[C@H]3COC(=O)[C@H]23)OCO4)cc(OC)c1O,IC50,[1],10 nM
same,IC50,[2],8320 nM
same,IC50,[3],> 100000 nM
same,IC50,[4],260 nM
COc1cc([C@@H]2c3cc4c(cc3[C@@H](OC(=O)NC3CCCC3)[C@H]3COC(=O)[C@H]23)OCO4)cc(OC)c1O,IC50,[1],330 nM
same,IC50,[2],4540 nM
same,IC50,[3],3750 nM
same,IC50,[4],210 nM
COc1cc([C@@H]2c3cc4c(cc3[C@@H](O[C@@H]3O[C@@H]5CO[C@@H](C)O[C@H]5[C@H](O)[C@H]3O)[C@H]3COC(=O)[C@H]23)OCO4)cc(OC)c1O [ETOPOSIDE],IC50,[3],2910 nM
COc1cc([C@@H]2c3cc4c(cc3[C@@H](OC(=O)N[C@@H](CCSC)C(=O)N3CCN(c5ccc([N+](=O)[O-])cc5)CC3)[C@H]3COC(=O)[C@H]23)OCO4)cc(OC)c1O,IC50,[1],570 nM
same,IC50,[2],> 100000 nM
same,IC50,[3],49400 nM
same,IC50,[4],10 nM
COc1cc([C@@H]2c3cc4c(cc3[C@@H](OC(=O)NC3CC3)[C@H]3COC(=O)[C@H]23)OCO4)cc(OC)c1O,IC50,[1],80 nM
same,IC50,[2],18300 nM
same,IC50,[3],10800 nM
same,IC50,[4],160 nM
COc1cc([C@@H]2c3cc4c(cc3[C@@H](OC(=O)N[C@H](Cc3ccccc3)C(=O)N3CCN(c5ccc([N+](=O)[O-])cc5)CC3)[C@H]3COC(=O)[C@H]23)OCO4)cc(OC)c1O,IC50,[1],70 nM
same,IC50,[2],> 100000 nM
same,IC50,[3],28600 nM
same,IC50,[4],40 nM
COc1cc([C@@H]2c3cc4c(cc3[C@@H](OC(=O)N3CCN(c5ccc([N+](=O)[O-])cc5)CC3)[C@H]3COC(=O)[C@H]23)OCO4)cc(OC)c1O,Activity,[5],9.8%
same,Activity,[6],26%
same,Activity,[7],33.9%
same,Activity,[8],35.9%
same,Activity,[9],24.7%
same,Activity,[10],21.7%
same,Activity,[11],23%
same,Activity,[12],38.1%
same,Activity,[13],29.9%
same,Activity,[14],10.2%
same,Activity,[15],10.2%
same,Activity,[16],33.3%
same,Activity,[17],43.8%
same,Activity,[18],11.1%
same,Activity,[19],4.1%
same,IC50,[1],< 10 nM
same,IC50,[2],1670 nM
same,IC50,[3],74 nM
same,IC50,[4],170 nM
same,Activity,[20],Active
same,Activity,[21],Dose-dependent effect
same,Activity,[22],Active
same,Activity,[23],Active
same,Activity,[24],tde
same,Activity,[25],tde
same,Activity,[26],tde
same,Activity,[27],Active
same,Activity,[28],Active
same,Activity,[29],29.1%
same,Activity,[30],22.5%
same,Activity,[31],20.5%
same,Activity,[32],13.1%
same,Activity,[33],10.2%
COc1cc([C@@H]2c3cc4c(cc3[C@@H](OC(=O)N3CCN(C5CCCC5)CC3)[C@H]3COC(=O)[C@H]23)OCO4)cc(OC)c1O,IC50,[1],1620 nM
same,IC50,[2],3890 nM
same,IC50,[3],4400 nM
same,IC50,[4],< 10 nM
CCCNC(=O)O[C@@H]1c2cc3c(cc2[C@@H](c2cc(OC)c(O)c(OC)c2)[C@H]2C(=O)OC[C@@H]21)OCO3,IC50,[1],185 nM
same,IC50,[2],8830 nM
same,IC50,[3],13200 nM
same,IC50,[4],90 nM
COc1cc([C@@H]2c3cc4c(cc3[C@@H](OC(=O)N3CCOCC3)[C@H]3COC(=O)[C@H]23)OCO4)cc(OC)c1OC(=O)N1CCOCC1,IC50,[1],130 nM
same,IC50,[2],> 100000 nM
same,IC50,[3],> 100000 nM
same,IC50,[4],< 10 nM
COc1cc([C@@H]2c3cc4c(cc3[C@@H](OC(=O)N3CCN(c5ccc(F)cc5)CC3)[C@H]3COC(=O)[C@H]23)OCO4)cc(OC)c1O,IC50,[1],10 nM
same,IC50,[2],5240 nM
same,IC50,[3],1580 nM
same,IC50,[4],330 nM
COc1cc([C@@H]2c3cc4c(cc3[C@@H](OC(=O)N3CCOCC3)[C@H]3COC(=O)[C@H]23)OCO4)cc(OC)c1O,IC50,[1],150 nM
same,IC50,[2],8550 nM
same,IC50,[3],8590 nM
same,IC50,[4],10 nM
COc1cc([C@@H]2c3cc4c(cc3[C@@H](OC(=O)N[C@@H](Cc3ccccc3)C(=O)N3CCN(c5ccc([N+](=O)[O-])cc5)CC3)[C@H]3COC(=O)[C@H]23)OCO4)cc(OC)c1O,IC50,[1],10 nM
same,IC50,[2],9550 nM
same,IC50,[3],4130 nM
same,IC50,[4],30 nM
